# Laboratory results reported in US9956225B2, “Treatment of myelodysplastic syndrome” (Boehringer Ingelheim International GmbH, priority 2013, dated 2018).
# Assays:
# [1] = test system: human AML cell line MV4;11; experiment: Nude mouse xenograft model derived from human AML cell line MV4;11: tumor growth; type: in vivo; conditions: 21 days, MV4;11 xenograft in nude mice
# Description: Tumor-bearing mice were treated for 3 weeks intravenously either with vehicle or once weekly with 10 mg/kg or 20 mg/kg Volasertib (BI 6727), respectively. Median tumor volumes are plotted over time. Day 1 was the first day, day 21 the last day of the experiment. Efficacy results from this xenograft model are considered valid for MDS.
# MV4;11 (CRL-9591) cells were obtained from ATCC. According to the Catalogue of Somatic Mutations in Cancer of the Wellcome Trust Sanger Institute, UK, this cell line carries a mutation in the FLT3 gene. Cells were cultured in T175 tissue culture flasks at 37° C. and 5% CO2. The medium used was IMDM supplemented with 10% fetal calf serum, 1% NEAA, 1% sodium pyruvate and 1% glutamine.
# Mice were 8-9 week-old athymic female BomTac: NMRI-Foxn1^nu purchased from Taconic, Denmark. After arrival in the animal facility, mice were allowed to adjust to ambient conditions for at least 3 days before they were used for experiments. They were housed in Macrolon® type II cages in groups of 5 under standardized conditions at 21.5±1.5° C. temperature and 55±10% humidity. […]
# (§1) The tumor diameter was measured three times a week with a caliper. The volume of each tumor [in mm^3] was calculated according to the formula “tumor volume=length*diameter^2*π/6”. To monitor side effects of treatment, mice were inspected daily for abnormalities and body weight was determined three times a week. […]
# [2] = Body weight change in MV4;11 nude mouse xenograft model (side effects); type: in vivo; conditions: 21 days, tumor-bearing nude mice
# Description: Tumor-bearing mice were treated for 3 weeks intravenously either with vehicle or with 10 mg/kg or 20 mg/kg Volasertib, respectively, once weekly. Median changes in body weight compared to day 1 are plotted over time. Day 1 was the first day, day 21 the last day of the experiment.
# Mice were 8-9 week-old athymic female BomTac: NMRI-Foxn1^nu purchased from Taconic, Denmark. After arrival in the animal facility, mice were allowed to adjust to ambient conditions for at least 3 days before they were used for experiments. They were housed in Macrolon® type II cages in groups of 5 under standardized conditions at 21.5±1.5° C. temperature and 55±10% humidity. Standardized diet (PROVIMI KLIBA) and autoclaved tap water were provided ad libitum.
# Volasertib (BI 6727) was dissolved in hydrochloric acid (0.1 N), diluted with 0.9% NaCl and injected intravenously into the tail vein. An administration volume of 10 ml per kg body weight was used. The solution was freshly made up each injection day.
# as §1
compound,measurement,setting,value
"CC[C@@H]1C(=O)N(C)c2cnc(Nc3ccc(C(=O)N[C@H]4CC[C@H](N5CCN(CC6CC6)CC5)CC4)cc3OC)nc2N1C(C)C [Volasertib, N-[trans-4-[4-(cyclopropylmethyl)-1-piperazinyl]cyclohexyl]-4-[[(7R)-7-ethyl-5,6,7,8-tetrahydro-5-methyl-8-(1-methylethyl)-6-oxo-2-pteridinyl]amino]-3-methoxy-benzamide]",median T/C (ratio of median tumor volume of treated vs. control tumors),[1]; 10 mg/kg once a week i.v.,76%
same,median T/C (ratio of median tumor volume of treated vs. control tumors),[1]; 20 mg/kg once a week i.v.,38%
same,body weight gain (side effect profile),[2]; 10 mg/kg once a week i.v.,body weight gain was comparable to vehicle
same,body weight gain (side effect profile),[2]; 20 mg/kg once a week i.v.,body weight gain was comparable to vehicle
